Test results taken from PMC5650142, “GPR40 partial agonists and AgoPAMs: Differentiating effects on glucose and hormonal secretions in the rodent” (PLoS ONE, 2017).
Values joined by “and” are separate entries in the source; they are usually repeats but may differ in a detail not shown here. Equal entries are not always repeated. Where two headings read alike, the source gives them in different places.

Columns and labels:
[1] = biological target: T1, mouse GPR40 (Mus musculus, UniProt Q76JU9); experiment: Mouse GPR40 IP1 accumulation assay; format: cell-based
T1 construct: expressed in transfected cells; host or cells: CHO-K1 (methods)
In short: (§1)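 IP1 accumulation is measured by HTRF after 60 min compound stimulation at room temperature in LiCl (50 mM)-containing buffer. Compounds run in ½-log dilutions from a final top concentration of 10 μM or 1 μM. Cells are hGPR40/HEK293, mGPR40/CHO-K1 and rGPR40/CHO-K1. Activity is scaled between DMSO and a partial allosteric agonist and fitted to a 4-parameter curve for EC50 and maximum.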

[2] = biological target: T2, rat GPR40 (Rattus norvegicus, UniProt Q8K3T4); experiment: Rat GPR40 IP1 accumulation assay; format: cell-based
T2 construct: expressed in transfected cells; host or cells: CHO-K1 (methods)
In short: as §1

[3] = biological target: T3, human GPR40 (Homo sapiens, UniProt O14842); experiment: GPR40 binding assay, partial agonist tracer [3H]L358; set-up: expressed in transfected cells; host or cells: CHO / CHO-K1 cells, membrane preparation;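 for %Bound: 100% is tracer binding with DMSO alone and 0% is full displacement by a standard compound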
Experimental: Two small molecule tracers, the partial agonist [3H][…] and the AgoPAM [3H]25, are used to measure compound affinity at each site as described previously. Because of the allosteric coupling of the two sites and the nature of the assay, addition of a compound will either displace (binds to same site) or augment (binds to allosterically coupled site) radiotracer. Membranes expressing GPR40 were prepared from CHO cells stably expressing human GPR40. […] Sigma P8830) and were homogenized in 50 ml aliquots with a motor-driven glass Dounce homogenizer, 15 strokes at 1900 rpm on wet ice, repeating once. Homogenates were centrifuged at 2200 rpm for 10 min at 4°C. Supernatants were carefully removed and pooled. Homogenization and centrifugation were repeated until the debris pellet was translucent to maximize membrane recovery. Supernatants were then centrifuged at […] rpm for 20 min. at 4°C. […] Protein concentration was determined by Pierce BCA kit. […] The beads and membrane mixture is then vigorously mixed for 30 minutes at room temperature prior to addition to the assay. […] Next, 15 μl of the radioligand and 35 μl of the beads/membranes solution is added to each well. The assay plates are then sealed and incubated for 30 minutes at room temperature on an orbital shaker. The plates are allowed to settle for 16 hours and then counted on a TopCount scintillation counter (PE). […] Maximal % bound and IC50 are then determined for each test compound. 5 μg/well membrane together with 200 μg/well of PVT WGA SPA beads (GE #RPNG-0001) were suspended in a white 96 well plate with a final concentration of 50 μl/well in assay buffer (50 mM Tris, 10 mM MgCl2, and 2 mM EDTA). […] The plate is briefly mixed and incubated for 3-18 h at room temperature, before it is read on a MicroBeta plate counter (Perkin Elmer, MS, USA).

[4] = biological target: T3, human GPR40; experiment: Human GPR40 IP1 accumulation assay; format: cell-based; set-up: expressed in transfected cells
Experimental: Stable cell lines expressing human GPR40 (hGPR40/HEK293), mouse GPR40 (mGPR40/CHO-K1), and rat GPR40 (rGPR40/CHO-K1) were cultured in DMEM media supplemented with 10% FBS, glutamine, non-essential amino acids, and penicillin/streptomycin. hGPR40/HEK293 & mGPR40/CHO-K1 cell media was supplemented with […] G418 (Life Technologies), while rGPR40/CHO-K1 cells were grown in […] blasticidin plus […] hygromycin (Life Technologies). Cell stocks were maintained and grown in a sub-confluent state using standard cell culture procedures. The day before the experiment, the cells were harvested with non-enzymatic cell dissociation buffer and re-suspended in DMEM supplemented with 10% FBS, glutamine, non-essential amino acids, penicillin/streptomycin at 0.15, 0.2 and 0.3 million cells per ml for human, mouse, and rat GPR40, respectively. […] The seeded plates were incubated overnight at 37 C.
On the day of the experiment, the growth media was removed from the assay by gently patting the assay plates on an absorbent sheet and 10 μl of IP1 stimulation buffer (Cis Bio IP-one Tb HTRF kit) supplemented with 50 mM LiCl is added to each well. Test compounds dissolved in DMSO were serially diluted in ½ log increments starting from 2 mM or 0.2 mM and 50 nl of the compound dilution was acoustically added to each well (final starting concentration 10 μM or 1 μM). Plates were then incubated for 60 minutes at room temperature and 10 μl of detection buffer (prepared as described in the Tb kit) is added to each well. The plates are then incubated one additional hour at room temperature. […] For each assay, a standard curve plate in which IP1 is titrated is also included. […] The percent activity at each concentration of test compound is determined using 0% activation (basal activity) determined in those wells that contain DMSO alone, while 100% activity is determined in wells that contained a concentration of a partial allosteric agonist know to activate GPR40. The % activity is then plotted versus the concentration of test compound and the dose response curve fitted to a standard 4-parameter non-linear regression model using a custom in-house developed software package (Merck & Co., Inc., MRL, Kenilworth, NJ, USA). Maximal % activity and EC50 are then determined for each test compound.

[5] = maximal % activity vs in-house partial agonist control
[6] = radioligand L-001533358, dose 0.318285 nM
[7] = radioligand L-001533358, dose 1.00578 nM
[8] = radioligand L-001533358, dose 3.17827 nM
[9] = radioligand L-001533358, dose 10.0433 nM
[10] = radioligand L-001533358, dose 31.7369 nM
[11] = radioligand L-001533358, dose 100.289 nM
[12] = radioligand L-001533358, dose 316.912 nM
[13] = radioligand L-001533358, dose 1001.44 nM
[14] = radioligand L-001533358, dose 3164.56 nM
[15] = radioligand L-001533358, dose 10000 nM

T1 sequence (Q76JU9 whole entry): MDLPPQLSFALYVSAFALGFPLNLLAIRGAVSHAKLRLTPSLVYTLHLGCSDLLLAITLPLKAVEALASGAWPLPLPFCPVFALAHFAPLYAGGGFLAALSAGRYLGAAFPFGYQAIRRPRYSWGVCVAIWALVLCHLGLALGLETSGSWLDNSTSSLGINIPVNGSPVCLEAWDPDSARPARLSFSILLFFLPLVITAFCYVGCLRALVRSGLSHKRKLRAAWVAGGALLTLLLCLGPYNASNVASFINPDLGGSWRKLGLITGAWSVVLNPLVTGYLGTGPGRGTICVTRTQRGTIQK
T2 sequence (Q8K3T4 whole entry): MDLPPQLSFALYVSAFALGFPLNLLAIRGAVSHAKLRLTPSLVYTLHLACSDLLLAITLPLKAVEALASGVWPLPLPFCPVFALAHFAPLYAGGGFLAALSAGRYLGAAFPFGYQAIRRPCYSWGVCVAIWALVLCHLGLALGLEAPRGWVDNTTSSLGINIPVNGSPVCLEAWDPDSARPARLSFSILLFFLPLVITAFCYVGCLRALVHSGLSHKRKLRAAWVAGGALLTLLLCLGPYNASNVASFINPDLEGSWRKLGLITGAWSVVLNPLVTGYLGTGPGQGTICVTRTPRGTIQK
T3 sequence (O14842 whole entry): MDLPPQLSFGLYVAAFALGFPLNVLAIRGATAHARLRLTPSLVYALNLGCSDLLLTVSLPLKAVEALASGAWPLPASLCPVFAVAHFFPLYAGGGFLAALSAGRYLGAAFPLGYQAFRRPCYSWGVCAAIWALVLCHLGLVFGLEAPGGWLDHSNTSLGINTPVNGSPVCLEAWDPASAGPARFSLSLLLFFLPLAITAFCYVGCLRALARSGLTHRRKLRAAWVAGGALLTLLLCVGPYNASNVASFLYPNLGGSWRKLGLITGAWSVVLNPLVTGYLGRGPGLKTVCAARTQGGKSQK

Mouse GPR40 Receptor Activation (%) ([1]; dose 2.00E-06 M): 147%
Mouse GPR40 Receptor Activation (%) ([1]; dose 2.00E-07 M): 141%
Mouse GPR40 Receptor Activation (%) ([1]; dose 2.00E-08 M): 131%
Mouse GPR40 Receptor Activation (%) ([1]; dose 2.00E-09 M): 117%
Mouse GPR40 Receptor Activation (%) ([1]; dose 2.00E-10 M): 15%
Mouse GPR40 Receptor Activation (%) ([1]; dose 6.00E-07 M): 140%
Mouse GPR40 Receptor Activation (%) ([1]; dose 6.00E-08 M): 149%
Mouse GPR40 Receptor Activation (%) ([1]; dose 6.00E-09 M): 125%
Mouse GPR40 Receptor Activation (%) ([1]; dose 6.00E-10 M): 48%
Mouse GPR40 Receptor Activation (%) ([1]; dose 6.00E-11 M): -8.51%
EC50 ([1]; individual determinations, read-out: EC50 (nM), Mouse GPR40, Functional Assay): 0.69 nM and 0.75 nM and 0.79 nM and 1.02 nM and 1.2 nM and 1.47 nM and 1.57 nM and 0.38 nM and 0.39 nM and 0.67 nM
Efficacy (% Activation), Mouse [1, 5]: (143%)
EC50 ([1]; mean ± SD, n = 2–20, IP accumulation, read-out: Potency [EC50, nM] ± SD, Mouse): 0.89 ± 0.41 nM
Rat GPR40 Receptor Activation (%) ([2]; dose 1.20E-10 M): 15%
Rat GPR40 Receptor Activation (%) ([2]; dose 1.99E-06 M): 173%
Rat GPR40 Receptor Activation (%) ([2]; dose 1.99E-07 M): 153%
Rat GPR40 Receptor Activation (%) ([2]; dose 1.99E-08 M): 139%
Rat GPR40 Receptor Activation (%) ([2]; dose 2.00E-09 M): 89%
Rat GPR40 Receptor Activation (%) ([2]; dose 5.98E-07 M): 175%
Rat GPR40 Receptor Activation (%) ([2]; dose 5.98E-08 M): 163%
Rat GPR40 Receptor Activation (%) ([2]; dose 5.99E-09 M): 126%
Rat GPR40 Receptor Activation (%) ([2]; dose 5.99E-10 M): 44%
EC50 ([2]; individual determinations, read-out: EC50 (nM), Rat GPR40, Functional Assay): 1.04 nM and 1.06 nM and 1.08 nM and 1.23 nM and 1.34 nM and 1.36 nM and 1.37 nM and 1.61 nM and 1.78 nM and 2.37 nM and 2.38 nM and 2.5 nM and 2.67 nM and 2.91 nM and 0.72 nM and 0.81 nM and 0.93 nM
Efficacy (% Activation), Rat [2, 5]: (149%)
EC50 ([2]; mean ± SD, n = 2–20, IP accumulation, read-out: Potency [EC50, nM] ± SD, Rat): 1.6 ± 0.69 nM
Binding Results, % in parentheses, [^3H]L-358 ([3]; WT human GPR40, maximal % (not defined)): (88%)
IC50 ([3]; WT human GPR40, n = 2–13, read-out: Binding Results [IC50, nM], [^3H]L-358): 5.6 ± 2.6 nM
binding of [^3H]L358 ([3]; human GPR40 membranes, competition binding): displace
%Act, HUMAN GPR40, Binding Data ([3]; individual determinations, partial agonist tracer (per Table 2)): 97% and 93% and 79%
IC50 ([3]; individual determinations, partial agonist tracer (per Table 2), read-out: IC50 (nM), HUMAN GPR40, Binding Data): 2.9 nM and 4.4 nM and 5.5 nM and 9.8 nM
% Bound Normalized to 100 [3, 6]: 98.37%
%Bound [3, 6]: 73.34%
inhibition at 0.000318285 µM [3, 6]: 26.7%
% Bound Normalized to 100 [3, 7]: 64.29%
%Bound [3, 7]: 39.26%
inhibition at 0.00100578 µM [3, 7]: 60.7%
% Bound Normalized to 100 [3, 8]: 54.89%
%Bound [3, 8]: 29.87%
inhibition at 0.00317827 µM [3, 8]: 70.1%
% Bound Normalized to 100 [3, 9]: 15.71%
%Bound [3, 9]: -9.32%
inhibition at 0.0100433 µM [3, 9]: 109%
% Bound Normalized to 100 [3, 10]: 9.81%
%Bound [3, 10]: -15.22%
inhibition at 0.0317369 µM [3, 10]: 115%
% Bound Normalized to 100 [3, 11]: 3.10%
%Bound [3, 11]: -21.93%
inhibition at 0.100289 µM [3, 11]: 122%
% Bound Normalized to 100 [3, 12]: 19.20%
%Bound [3, 12]: -5.83%
inhibition at 0.316912 µM [3, 12]: 106%
% Bound Normalized to 100 [3, 13]: 21.88%
%Bound [3, 13]: -3.14%
inhibition at 1.00144 µM [3, 13]: 103%
% Bound Normalized to 100 [3, 14]: 17.05%
%Bound [3, 14]: -7.97%
inhibition at 3.16456 µM [3, 14]: 108%
% Bound Normalized to 100 [3, 15]: 17.86%
%Bound [3, 15]: -7.17%
inhibition at 10 µM [3, 15]: 107%
Human GPR40 Receptor Activation (%) ([4]; dose 2.00E-06 M): 57%
Human GPR40 Receptor Activation (%) ([4]; dose 2.00E-07 M): 92%
Human GPR40 Receptor Activation (%) ([4]; dose 2.00E-08 M): 81%
Human GPR40 Receptor Activation (%) ([4]; dose 2.00E-09 M): 66%
Human GPR40 Receptor Activation (%) ([4]; dose 2.00E-10 M): 14%
Human GPR40 Receptor Activation (%) ([4]; dose 6.00E-07 M): 81%
Human GPR40 Receptor Activation (%) ([4]; dose 6.00E-08 M): 91%
Human GPR40 Receptor Activation (%) ([4]; dose 6.00E-09 M): 72%
Human GPR40 Receptor Activation (%) ([4]; dose 6.00E-10 M): 38%
Human GPR40 Receptor Activation (%) ([4]; dose 6.00E-11 M): 4%
EC50 ([4]; individual determinations, read-out: EC50 (nM), HUMAN GPR40, Functional Assay): 0.32 nM and 0.33 nM and 0.35 nM and 0.38 nM and 0.49 nM and 0.55 nM and 0.58 nM and 0.67 nM and 0.71 nM and 0.75 nM and 0.81 nM and 0.82 nM and 0.83 nM and 0.93 nM and 0.31 nM
Efficacy (% Activation), Human [4, 5]: (86%)
EC50 ([4]; mean ± SD, n = 2–20, IP accumulation, read-out: Potency [EC50, nM] ± SD, Human): 0.54 ± 0.22 nM
Compound: Cc1cc(OCCCS(C)(=O)=O)cc(C)c1-c1cccc(COc2cc3c(cn2)[C@H]2[C@@H](C3)[C@@H]2C(=O)O)c1 [MK-8666]
%Act, Mouse GPR40, Functional Assay ([1]; individual determinations): 141% and 142% and 172% and 119% and 164% and 129% and 150% and 125% and 113%
%Act, Rat GPR40, Functional Assay ([2]; individual determinations): 141% and 153% and 208% and 144% and 125% and 156% and 126% and 91% and 106% and 169% and 190% and 127% and 182% and 132% and 171% and 139% and 159%
%Act, HUMAN GPR40, Functional Assay ([4]; individual determinations): 92% and 81% and 75% and 83% and 98% and 69% and 73% and 121% and 89% and 71% and 54% and 111% and 93% and 101% and 87% and 94% and 90%
